Tested on: Johnsongrass
Assay: Greenhouse bioassay test of herbicidal activity, pot-grown weeds sprayed with a track sprayer
Assay type: in vivo
Details: mean of four rates (1/4, 1/2, 3/4 and 1 pound glyphosate/acre; 0.28, 0.56, 0.84 and 1.12 kg/ha), 4 weeks after treatment, 0.25 % ethoxylated amine surfactant in all spray solutions
Procedure: The results of the bioassay test of the Example 2 formulation are shown below. Roundup herbicide was used as a comparative of the prior art.
In all of the greenhouse bioassay tests provided in this specification, pot-grown weed species were sprayed with aqueous solutions of the glyphosate WSP formulations using a track sprayer calibrated to apply about 20 gallons/acre (187 liters/hectare) at about 30 psi ([…]).
WSP formulations were prepared without Witconate surfactant. The surfactant was tank mixed into the spray solutions for bioassays.

Structure (SMILES): CC(C)N.O=C(O)CNCP(=O)(O)O [Isopropylamine salt of glyphosate]
- % INHIBITION: 55.2%

Source: patent EP0568635B1, “IMPROVED GLYPHOSATE FORMULATIONS” (MONSANTO COMPANY, priority 1991, dated 1992)
